Results taken from publication PMC7400623, “Effect of lysine side chain length on histone lysine acetyltransferase catalysis” (Scientific Reports, 2020).

How the values were obtained:
GCN5 (KAT2A) = target: T1, GCN5 (KAT2A) (Homo sapiens, UniProt Q92830); test: MALDI-TOF MS enzymatic assay of GCN5-catalyzed acetylation of histone peptides; type: biochemical; settings: 300 µM AcCoA, pH 8.0, 37 °C; for acetylation (conversion to acetylated peptide) by GCN5: after 3 h, 2 µM GCN5, 100 µM peptide, 50 mM Hepes, 0.1 mM EDTA, 1 mM DTT
T1 construct: Human GCN5 catalytic domain (residues 497–662 in pET28a-LIC vector); His-tag; host or cells: E. coli BL21(DE3)
T1 sequence (Q92830 497-662): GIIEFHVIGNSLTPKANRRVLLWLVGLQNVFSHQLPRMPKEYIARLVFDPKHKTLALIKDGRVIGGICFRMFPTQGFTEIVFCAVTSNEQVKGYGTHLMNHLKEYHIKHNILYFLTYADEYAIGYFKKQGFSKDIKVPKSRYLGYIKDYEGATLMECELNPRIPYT
Experimental: (§1) MALDI-TOF MS enzymatic assays were carried out to investigate KAT-catalyzed acetylation of synthetic histone peptides. The enzymatic activity of the recombinantly expressed human KATs was measured at different time points (2 µM KAT enzyme, 100 µM histone peptide, 300 µM AcCoA, buffer: 50 mM Hepes, 0.1 mM EDTA, 1 mM DTT, pH = 8.0, 37 °C, hereafter used as standard conditions) (Fig. 3b,c). […] As further control, H4 and H3 peptides containing stereochemically inverted D-lysine were synthesized.
(§2) The KAT enzymatic activity towards histone peptides was measured at different time points under standard conditions (2 µM KAT enzyme, 100 µM peptide, 300 µM AcCoA) in the reaction buffer (50 mM HEPES, 0.1 mM EDTA, 1 mM DTT, pH = 8.0). The reactions were carried out in a final volume of 50 µL and shaken up in a Thermomixer C at 750 rpm, at 37 °C. The reactions were quenched by the addition of TFA 10% in MilliQ water at different time points. All reactions were aliquoted and mixed 1:2 with a solution of α-Cyano-4-hydroxycinnamic acid (CHCCA) in 1:1 MQ and ACN (0.1% TFA) and loaded onto an MTP 384 polished steel target to be analyzed by a UltrafleXtreme-II tandem mass spectrometer (Bruker, Billerica, MA, USA).

PCAF (KAT2B) = target: T2, PCAF (KAT2B) (Homo sapiens, UniProt Q92831); test: MALDI-TOF MS enzymatic assay of PCAF-catalyzed acetylation of histone peptides; type: biochemical; settings: 100 µM peptide, 300 µM AcCoA, pH 8.0, 37 °C; for acetylation (conversion to acetylated peptide) by PCAF: after 3 h, 2 µM PCAF, 50 mM Hepes, 0.1 mM EDTA, 1 mM DTT
T2 construct: Human PCAF catalytic domain (residues 498–658 in pET16b vector); SNAP-tag; His-tag; made in house; host or cells: E. coli BL21(DE3)
T2 sequence (Q92831 498-658): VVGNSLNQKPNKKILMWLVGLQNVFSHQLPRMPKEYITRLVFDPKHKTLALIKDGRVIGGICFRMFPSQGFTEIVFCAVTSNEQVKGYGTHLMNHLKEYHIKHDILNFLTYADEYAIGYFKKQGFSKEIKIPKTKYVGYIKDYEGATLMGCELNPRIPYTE
Experimental: as §1, §2

[1] = target: Human PCAF catalytic domain (residues 498-658) (human) (UniProt Q92831)
Human PCAF catalytic domain (residues 498-658) (human), sequence (Q92831 498-658): as above

[2] = target: Human GCN5 catalytic domain (residues 497-662) (human) (UniProt Q92830)
Human GCN5 catalytic domain (residues 497-662) (human), sequence (Q92830 497-662): as the sequence (Q92830 497-662) above

PCAF catalytic domain = target: T3, PCAF catalytic domain (Homo sapiens, UniProt Q92831); test: MALDI-TOF MS kinetics assay, PCAF; type: biochemical; settings: for kcat^app / Km: PCAF catalytic domain 50 nM (2 µM for unnatural analogs), peptide 1,050–0 µM, pH 7.4, 37 °C, MALDI-TOF MS, duplicates, value ± SD, SD; for kcat^app: AcCoA 100 µM (saturating), 50 mM HEPES, 0.1 mM EDTA, 0.01% TRITON-X; for Km: AcCoA 100 µM, read-out: Km^app; for kcat^app/Km^app / decrease (drop) of kcat/Km for PCAF compared to the natural lysine peptide: PCAF; for kcat^app/Km^app: same kinetics conditions; for decrease (drop) of kcat/Km for PCAF compared to the natural lysine peptide: K14 series vs H3K14, K9 series vs H3K9
T3 construct: Human PCAF catalytic domain (residues 498–658 in pET16b vector); SNAP-tag; His-tag; made in house; host or cells: E. coli BL21(DE3)
T3 sequence (Q92831 498-658): as the sequence (Q92831 498-658) above
From the text: (§3) Kinetic analysis of bi-substrate enzymes, such as KATs, is reckoned to be challenging and dependent on many factors. Firstly, given the nature of these enzymes, the binding of one of the two substrates directly influences the binding of the other (with a direct effect on the Michaelis–Menten parameter Km). […] Therefore, to obtain data that would allow us to directly compare the catalytic properties of the selected KATs towards our selection of histone peptides bearing lysine analogs with longer side chains, two strategies to standardize our kinetic evaluation were taken: i) all the experiments were carried out with the same saturating concentrations of AcCoA and ii) only KATs catalytic domains were employed in the study.
(§4) Histone peptides kinetics evaluation was carried out with a MALDI-TOF MS assay under steady-state conditions[57],[58]. Histone peptides (1,050–0 µM) were incubated with AcCoA (100 µM) and the reactions were started by the addition of the enzyme (MOF 570 nM, PCAF and GCN5 50 nM) in a final volume of 20 µL in kinetic buffer (50 mM HEPES, 0.1 mM EDTA, 0.01% TRITON-X, pH = 7.4). […] AcCoA stock solutions in milli-Q water were calibrated with a NanoDrop 2000 spectrophotometer (Thermo Scientific, Waltham, MA, USA), employing the characteristic molar extinction coefficient ε260nm = 16,400 M^−1 cm^−1. Reactions were incubated at 37 °C, shaken at 750 rpm and quenched with TFA 10% in milli-Q water at different time points, within linear production of acetylated peptides extrapolated from time-course plots. All reactions were aliquoted and mixed 1:2 with a solution of α-cyano-4-hydroxycinnamic acid (CHCCA) in 1:1 MQ and ACN (0.1% TFA) and loaded onto MTP 384 polished steel target to be analyzed by UltrafleXtreme-II tandem mass spectrometer (Bruker). The amount of acetylated peptide was calculated by integration of the product peak area and divided it by the amount of unacetylated peptide, taking in account all the ionic species, at any concentration points using the FlexAnalysis software. Kinetic values were extrapolated by fitting V0 values (µM of produced peptide per minutes) and histone peptide concentrations to the Michaelis–Menten equation using the GraphPad Prism 5 software. Kinetic experiments were carried out in duplicates and final values are reported as value ± SD.

GCN5 catalytic domain = target: T4, GCN5 catalytic domain (Homo sapiens, UniProt Q92830); test: MALDI-TOF MS kinetics assay, GCN5; type: biochemical; settings: for kcat^app/Km^app / decrease (drop) of kcat/Km for GCN5 compared to the natural lysine peptide: GCN5; for kcat^app/Km^app: same kinetics conditions; for kcat^app / Km: GCN5 catalytic domain 50 nM (2 µM for unnatural analogs), peptide 1,050–0 µM, pH 7.4, 37 °C, MALDI-TOF MS, duplicates, value ± SD, SD; for kcat^app: AcCoA 100 µM (saturating), 50 mM HEPES, 0.1 mM EDTA, 0.01% TRITON-X; for Km: AcCoA 100 µM, read-out: Km^app; for decrease (drop) of kcat/Km for GCN5 compared to the natural lysine peptide: K14 series vs H3K14, K9 series vs H3K9
T4 construct: Human GCN5 catalytic domain (residues 497–662 in pET28a-LIC vector); His-tag; host or cells: E. coli BL21(DE3)
T4 sequence (Q92830 497-662): as the sequence (Q92830 497-662) above
From the text: as §3, §4

Substance | Km^app of PCAF-catalyzed acetylation (MALDI-TOF MS kinetics, steady state, saturating AcCoA, 37 °C, pH 7.4) [1] | Km^app of GCN5-catalyzed acetylation (MALDI-TOF MS kinetics, steady state, saturating AcCoA, 37 °C, pH 7.4) [2] | kcat^app (PCAF catalytic domain) | Km (PCAF catalytic domain) | kcat^app/Km^app (PCAF catalytic domain) | kcat^app/Km^app (GCN5 catalytic domain) | kcat^app (GCN5 catalytic domain) | Km (GCN5 catalytic domain) | other results
ARTKQTAR h3K9STGGK Ac A [H3h3K9, 15-mer histone H3 peptide (K14ac) with h3K at position 9] |  |  |  |  |  |  |  |  | substrate for GCN5-catalyzed acetylation (in words) (GCN5 (KAT2A); standard conditions: 2 µM GCN5, 100 µM peptide, 3 h, MALDI-TOF MS): No acetylation was observed within limits of detection; substrate for PCAF-catalyzed acetylation (in words) (PCAF (KAT2B); standard conditions: 2 µM PCAF, 3 h, MALDI-TOF MS): No acetylation was observed within limits of detection
H3K14 histone peptide (H3 residues 3-17, K9 acetylated) | 727 μM | 995 μM |  |  |  |  |  |  | 
H3h2K14 histone peptide (H3 residues 3-17, K9 acetylated, h2K at position 14) | 606 μM | 1050 μM |  |  |  |  |  |  | 
H3hK14 histone peptide (H3 residues 3-17, K9 acetylated, hLys at position 14) | 488 μM | 878 μM |  |  |  |  |  |  | 
TKQTARK Ac STGG K14 APR [H3K14, 15-mer H3 peptide, residues 3–17, synthetically acetylated K9, reference compound] |  |  | 6.07 ± 0.02 s⁻¹ | 727 ± 95 µM | 8330 M⁻¹ s⁻¹ | 5930 M⁻¹ s⁻¹ | 5.9 ± 0.035 s⁻¹ | 995 ± 198 µM | time to quantitative acetylation by GCN5 (GCN5 (KAT2A); standard conditions: 2 µM GCN5, 100 µM peptide): 15 min; time to quantitative acetylation by PCAF (PCAF (KAT2B); standard conditions: 2 µM PCAF): 15 min
TKQTARK Ac STGG h2K 14 APR [H3h2K14, 15-mer histone H3 peptide (K9ac) with h2K at position 14] |  |  | 0.0083 ± 0.0017 s⁻¹ | 606 ± 96 µM | 13 M⁻¹ s⁻¹ | 6.7 M⁻¹ s⁻¹ | 0.00667 ± 0.0017 s⁻¹ | 1050 µM | acetylation (conversion to acetylated peptide) by GCN5 (GCN5 (KAT2A); MALDI-TOF MS): 25%; decrease (drop) of kcat/Km for PCAF compared to the natural lysine peptide (PCAF catalytic domain): 625 fold; decrease (drop) of kcat/Km for GCN5 compared to the natural lysine peptide (GCN5 catalytic domain): 890 fold; acetylation (conversion to acetylated peptide) by PCAF (PCAF (KAT2B); MALDI-TOF MS): 55%
TKQTARK Ac STGG hK 14 APR [H3hK14, 15-mer histone H3 peptide (K9ac) with hLys at position 14] |  |  | 0.0155 ± 0.0033 s⁻¹ | 488 ± 98 µM | 31.7 M⁻¹ s⁻¹ | 16.7 M⁻¹ s⁻¹ | 0.0145 ± 0.0017 s⁻¹ | 878 ± 157 µM | acetylation (conversion to acetylated peptide) by GCN5 (GCN5 (KAT2A); MALDI-TOF MS): 62%; decrease (drop) of kcat/Km for PCAF compared to the natural lysine peptide (PCAF catalytic domain): 263 fold; decrease (drop) of kcat/Km for GCN5 compared to the natural lysine peptide (GCN5 catalytic domain): 354 fold; acetylation (conversion to acetylated peptide) by PCAF (PCAF (KAT2B); MALDI-TOF MS): 83%
